Laboratory results taken from patent US5189027A, “2-substituted adenosine derivatives and pharmaceutical compositions for circulatory diseases” (priority 1990, dated 1993).
Read-outs that look alike come from different tables or passages of the source.

Tests used:
A1 adenosine receptors [1] = target: T1, A1 adenosine receptors (Rattus norvegicus, UniProt P25099); test: Affinity for A1 adenosine receptors, [3H]-CHA binding to Wister rat brain membranes; details: 2.5 nM [3H]-CHA, Cheng and Prusoff, read-out: Affinity for Adenosine Receptors A1, affinity constant (Ki)
T1 construct: evaluated using Wister rat brain membranes; from tissue; host or cells: Wistar rat brain membranes
T1 sequence (P25099 1-326): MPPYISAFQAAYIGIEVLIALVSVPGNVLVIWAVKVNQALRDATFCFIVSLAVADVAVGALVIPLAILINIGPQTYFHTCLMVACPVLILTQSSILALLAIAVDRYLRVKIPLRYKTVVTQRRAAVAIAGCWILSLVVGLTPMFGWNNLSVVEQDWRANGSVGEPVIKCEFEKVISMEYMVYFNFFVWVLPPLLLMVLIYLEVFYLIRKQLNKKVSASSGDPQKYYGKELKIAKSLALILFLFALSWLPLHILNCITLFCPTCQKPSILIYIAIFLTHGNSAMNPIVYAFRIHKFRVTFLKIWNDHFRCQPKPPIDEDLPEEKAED
Method: The affinity of the compounds of the present invention for adenosine receptors was evaluated in substantially the same manner as is described in R. F. Bruns et al., Mol. Pharmacol., 29, 331-346 (1986); R. F. Bruns et al., Proc. Natl. Acad. Sci., U.S.A., 77, 5547 (1980); and Japanese Laid-Open Patent Publications Nos. 201196/1988 and 111996/1987. […] The above-obtained data were applied to the equation of Cheng and Prusoff, presented in Biochem. Pharmacol., 22, 3099 (1973), thereby finally obtaining the affinity constants (Ki). (See "Neurotransmitter and Receptor Binding". […] Kabushiki Kaisha (Sep. 15, 1987).)

[2] = test system: spontaneously hypertensive rats (SHRs); test: Effect on blood pressure and heart rate in SHR; assay type: in vivo, rat; details: for ED30: Rattus norvegicus, iv, 5 min, read-out: Blood Pressure ED30; for Heart Rate ED10: amount giving a 10 percent decrease in initial heart rate; for ED10/ED30: ratio of heart rate ED10 to blood pressure ED30 in SHR
Method: Male spontaneously hypertensive rats (SHRs) were anesthetized with urethane and α-chloralose. The blood pressure of the rats was measured with a pressure transducer through a polyethylene cannula inserted into the left carotid artery. The heart rate was monitored with a cardiotachometer triggered by the arterial pressure pulse. […] The blood pressure and the heart rate of the rats were measured 5 minutes after the respective administrations, and the maximum values thereof were determined.
Effects of the test compounds on the blood pressure and the heart rate were compared in terms of the ED30 and ED10 values.

A2 adenosine receptors [3] = target: T2, A2 adenosine receptors (Rattus norvegicus, UniProt P30543); test: Affinity for A2 adenosine receptors, [3H]-NECA binding to Wister rat striatal membranes; details: for Ki: Wister rat striatal membranes, 5 nM [3H]-NECA, Cheng and Prusoff, read-out: Affinity for Adenosine Receptors A2, affinity constant (Ki)
T2 construct: evaluated using Wister rat striatal membranes; from tissue; host or cells: Wistar rat striatal membranes
T2 sequence (P30543 whole entry): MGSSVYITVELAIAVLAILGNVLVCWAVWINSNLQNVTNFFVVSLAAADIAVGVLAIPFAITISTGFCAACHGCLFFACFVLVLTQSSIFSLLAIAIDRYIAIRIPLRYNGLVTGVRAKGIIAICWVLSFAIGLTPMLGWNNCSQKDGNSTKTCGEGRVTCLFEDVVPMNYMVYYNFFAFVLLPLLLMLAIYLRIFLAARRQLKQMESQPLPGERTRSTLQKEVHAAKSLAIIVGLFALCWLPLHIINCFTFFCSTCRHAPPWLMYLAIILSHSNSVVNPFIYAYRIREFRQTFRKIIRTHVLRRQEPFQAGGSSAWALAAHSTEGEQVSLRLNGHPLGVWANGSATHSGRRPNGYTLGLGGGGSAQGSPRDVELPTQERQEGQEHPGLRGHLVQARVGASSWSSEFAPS
Method: The affinity of the test compound for A2 receptors was also evaluated using Wister rat striatal membranes.
The selectivity for A1 and A2 receptors was obtained by calculating the ratio of the Ki value in terms of A2 receptors to that in terms of A1 receptors (A1 /A2).

A2 adenosine receptors [4] = details: background statement; cited from earlier work
A1 adenosine receptors [5] = details: background statement; cited from earlier work
[6] = anesthetized male SHR, cumulative administration through femoral veins

Compound | Ki (A1 adenosine receptors [1]) [nM] | ED30 [2] [µg/kg] | Heart Rate ED10 [2, 6] [µg/kg] | ED10/ED30 [2] | Ki (A2 adenosine receptors [3]) [nM] | affinity for A2 receptors (A2 adenosine receptors [4]) | affinity for A1 receptors (A1 adenosine receptors [5]) | A1/A2 (selectivity, ratio of Ki values) (A2 adenosine receptors [3]; ratio of Ki for A1 receptors to Ki for A2 receptors) | ED30 ([2]; amount giving a 30 percent decrease in initial blood pressure, anesthetized male SHR, cumulative administration through femoral veins) [µg/kg]
Nc1nc(C#CCC2CCCCC2)nc2c1ncn2[C@@H]1O[C@H](CO)[C@@H](O)[C@H]1O [Compound No. 26, 2-(3-cyclohexyl-1-propynyl)adenosine] | 208 | 0.126 | > 100 | > 793 | – | – | – | – | –
Nc1nc(C#CC2(O)CCCCCCC2)nc2c1ncn2[C@@H]1O[C@H](CO)[C@@H](O)[C@H]1O [Compound No. 45, 2-[(1-hydroxycyclooctane-1-yl)ethynyl]adenosine] | 56 | 0.012 | 14.78 | 1231 | – | – | – | – | –
Nc1nc(C#CCC2CCCC2)nc2c1ncn2[C@@H]1O[C@H](CO)[C@@H](O)[C@H]1O [Compound No. 18, 2-(3-cyclopentyl-1-propynyl)adenosine] | 162 | 0.054 | > 100 | > 1851 | 2.3 | – | – | – | –
CCNC(=O)[C@H]1O[C@@H](n2cnc3c(N)ncnc32)[C@H](O)[C@@H]1O [5'-N-ethylcarboxamideadenosine (NECA), 5'-N-ethylcarboxamideadenosine] | – | – | – | – | – | high affinity for A2 receptors | high affinity for A1 receptors | – | –
CCCCCCC#Cc1nc(N)c2ncn([C@@H]3O[C@H](CO)[C@@H](O)[C@H]3O)c2n1 [2-Octynyladenosine, reference compound] | – | – | 64.50 | 258 | 11 | – | – | 12.1 | 0.25
Nc1nc(C#CC2(O)CCCCC2)nc2c1ncn2[C@@H]1O[C@H](CO)[C@@H](O)[C@H]1O [Compound No. 29, 2-[(1-hydroxycyclohexane-1-yl)ethynyl]adenosine] | 21 | 0.014 | 3.29 | 235 | – | – | – | – | –
